Source: paper PMC3700073, “Synthesis and Biological Activity of New Thiopyrano[2,3-d]thiazoles Containing a Naphthoquinone Moiety” (Scientia Pharmaceutica, 2013)

What was measured:
HS 578T (breast cancer) = assay: NCI five-dose assay; type: cell-based, human; details: Homo sapiens, Hs-578T, HS 578T, breast cancer
BT-549 (breast cancer) = assay: NCI five-dose assay; type: cell-based; details: Homo sapiens, BT-549, BT-549, breast cancer
HL-60(TB) (leukemia) = assay: NCI five-dose assay; type: cell-based; details: Homo sapiens, HL-60, HL-60(TB)
PC-3 (prostate cancer) = assay: NCI five-dose assay; type: cell-based; details: Homo sapiens
NCI-H322M (NSCL cancer) = assay: NCI five-dose assay; type: cell-based; details: Homo sapiens
MOLT-4 (leukemia) = assay: NCI five-dose assay; type: cell-based; details: Homo sapiens, MOLT-4, MOLT-4, leukemia
NCI-H23 (NSCL cancer) = assay: NCI five-dose assay; type: cell-based; details: Homo sapiens
UACC-257 (melanoma) = assay: NCI five-dose assay; type: cell-based, human; details: Homo sapiens, UACC-257, UACC-257, melanoma
UO-31 (renal cancer) = assay: NCI five-dose assay; type: cell-based; details: Homo sapiens, UO-31, UO-31, renal cancer
RPMI-8226 (leukemia) = assay: NCI five-dose assay; type: cell-based; details: Homo sapiens, RPMI-8226, RPMI-8226, leukemia
A549/ATCC (NSCL cancer) = assay: NCI five-dose assay; type: cell-based; details: Homo sapiens
male mice = assay: Acute toxicity in vivo, median lethal dose; details: intraperitoneal, approximate LD50 (Litchfield and Wilcoxon)
Method: The synthesized compounds were evaluated for their approximate LD50 in male mice. The mice were kept under a constant temperature and humidity in sterile cages with water and food. The stock solutions of the compounds used in this study were prepared immediately before usage and injected intraperitoneally (ip). The LD50 values (Tab. 3) were calculated using the method described by Litchfield and Wilcoxon.
The median lethal dose (LD50), the dose of the selected compounds that causes 50% mortality in mice, was determined from dose–response curves with at least four doses by the method of Litchfield and Wilcoxon.

U251 (CNS cancer) = assay: NCI five-dose assay; type: cell-based; details: Homo sapiens, U-251, U251, CNS cancer
HOP-62 (NSCL cancer) = assay: NCI five-dose assay; type: cell-based; details: Homo sapiens, HOP-62, HOP-62, NSCL cancer
SK-MEL-2 (melanoma) = assay: NCI five-dose assay; type: cell-based; details: Homo sapiens, SK-MEL-2, SK-MEL-2, melanoma
EKVX (NSCL cancer) = assay: NCI five-dose assay; type: cell-based; details: Homo sapiens
HCT-116 (colon cancer) = assay: NCI five-dose assay; type: cell-based; details: Homo sapiens, HCT-116, HCT-116, colon cancer
LOX IMVI (melanoma) = assay: NCI five-dose assay; type: cell-based; details: Homo sapiens
SF-268 (CNS cancer) = assay: NCI five-dose assay; type: cell-based; details: Homo sapiens, SF-268, SF-268, CNS cancer
K-562 (leukemia) = assay: NCI five-dose assay; type: cell-based; details: Homo sapiens, K562, K-562, leukemia
SN12C (renal cancer) = assay: NCI five-dose assay; type: cell-based; details: Homo sapiens
HCT-15 (colon cancer) = assay: NCI five-dose assay; type: cell-based; details: Homo sapiens, HCT-15, HCT-15, colon cancer
NCI-H226 (NSCL cancer) = assay: NCI five-dose assay; type: cell-based; details: Homo sapiens
[1] = tested on: NCI/ADR-RES (breast cancer); assay: NCI five-dose assay; type: cell-based; details: Homo sapiens
OVCAR-3 (ovarian cancer) = assay: NCI five-dose assay; type: cell-based; details: Homo sapiens, OVCAR-3, OVCAR-3, ovarian cancer
SK-OV-3 (ovarian cancer) = assay: NCI five-dose assay; type: cell-based; details: Homo sapiens, SK-OV-3, SK-OV-3, ovarian cancer
[2] = tested on: MDA-MB-435 (breast cancer); assay: NCI five-dose assay; type: cell-based; details: Homo sapiens, MDA-MB-435, MDA-MB-435, breast cancer
SK-MEL-28 (melanoma) = assay: NCI five-dose assay; type: cell-based; details: Homo sapiens, SK-MEL-28, SK-MEL-28, melanoma
786-0 (renal cancer) = assay: NCI five-dose assay; type: cell-based; details: Homo sapiens, 786-0, 786-0, renal cancer
HOP-92 (NSCL cancer) = assay: NCI five-dose assay; type: cell-based; details: Homo sapiens, HOP-92, HOP-92, NSCL cancer
RXF-393 (renal cancer) = assay: NCI five-dose assay; type: cell-based; details: Homo sapiens
SK-MEL-5 (melanoma) = assay: NCI five-dose assay; type: cell-based, human
SR (leukemia) = assay: NCI five-dose assay; type: cell-based; details: Homo sapiens
[3] = tested on: MDA-MB-231/ATCC (breast cancer); assay: NCI five-dose assay; type: cell-based; details: Homo sapiens, MDA-MB-231, MDA-MB-231/ATCC
OVCAR-5 (ovarian cancer) = assay: NCI five-dose assay; type: cell-based; details: Homo sapiens, OVCAR-5, OVCAR-5, ovarian cancer
IGROV-1 (ovarian cancer) = assay: NCI five-dose assay; type: cell-based; details: Homo sapiens

For `COc1ccc(C2C3=C(Sc4[nH]c(=O)sc42)C(=O)c2ccccc2C3=O)cc1OC` (stereo not shown) [Compound 4f, 11-(3,4-Dimethoxyphenyl)-3,11-dihydro-2H-benzo[6,7]thiochromeno[2,3-d][1,3]thiazole-2,5,10-trione], the GI50 (HS 578T (breast cancer)) was 3.71 µM, the GI50 (BT-549 (breast cancer)) was 2.84 µM and the GI50 (HL-60(TB) (leukemia)) was 1.98 µM. It also gave a GI50 (PC-3 (prostate cancer)) of 5.41 µM, a GI50 (NCI-H322M (NSCL cancer)) of 3.78 µM and a GI50 (MOLT-4 (leukemia)) of 3.88 µM. It also gave a GI50 (NCI-H23 (NSCL cancer)) of 1.68 µM, a GI50 (UACC-257 (melanoma)) of 6.13 µM and a GI50 (UO-31 (renal cancer)) of 10.8 µM. The GI50 (RPMI-8226 (leukemia)) was 4.64 µM, the GI50 (A549/ATCC (NSCL cancer)) was 2.35 µM and the LD50ip (male mice) was 410 mg/kg. It also gave a GI50 (U251 (CNS cancer)) of 4.27 µM, a GI50 (HOP-62 (NSCL cancer)) of 5.87 µM and a GI50 (SK-MEL-2 (melanoma)) of 4.19 µM. The GI50 (EKVX (NSCL cancer)) was 4.97 µM, the GI50 (HCT-116 (colon cancer)) was 3.47 µM and the GI50 (LOX IMVI (melanoma)) was 1.26 µM. For the same molecule, the GI50 (SF-268 (CNS cancer)) was 4.89 µM, the GI50 (K-562 (leukemia)) was 4.97 µM and the GI50 (SN12C (renal cancer)) was 3.68 µM. For the same molecule, the GI50 (HCT-15 (colon cancer)) was 3.51 µM, the GI50 (NCI-H226 (NSCL cancer)) was 5.43 µM and the GI50 [1] was 7.07 µM. It also gave a GI50 (OVCAR-3 (ovarian cancer)) of 3.01 µM, a GI50 (SK-OV-3 (ovarian cancer)) of 13.6 µM and a GI50 [2] of 2.19 µM. For the same molecule, the GI50 (SK-MEL-28 (melanoma)) was 6.22 µM, the GI50 (786-0 (renal cancer)) was 15.2 µM and the GI50 (HOP-92 (NSCL cancer)) was 5.26 µM. The GI50 (RXF-393 (renal cancer)) was 2.27 µM, the GI50 (SK-MEL-5 (melanoma); Homo sapiens, SK-MEL-5, SK-MEL-5, melanoma) was 1.52 µM and the “TGI of the most sensitive cell line” value (SK-MEL-5 (melanoma); SK-MEL-5 /melanoma/) was 1.52 / 2.85 μM. The GI50 (SR (leukemia)) was 3.96 µM, the GI50 [3] was 3.13 µM and the GI50 (OVCAR-5 (ovarian cancer)) was 17.7 µM. It also gave a GI50 (IGROV-1 (ovarian cancer)) of 3.35 µM.
